In US7642063B2, “Methods for targeting and killing glioma cells” (Auburn University, priority 2004, dated 2010):

How the values were obtained:
normal rat astrocytes = experiment: Cytotoxicity by MTT assay on normal astrocytes; assay type: cell-based; details: 10 or 100 uM, 48 hours incubation
Description: (§1) Using glioma-selective sequences from the second family shown in FIG. 4 (and in FIG. 5(a)), a fusion molecule containing the same identical cell-targeting peptide coupled to a cell-killing peptide was designed and synthesized. Glioma cells (malignant cells originating from astrocytes) and normal astrocytes were treated with increasing concentrations (10 or 100 uM) of cytotoxic peptide alone, or cytotoxic peptide linked to the targeting peptide, i.e. the peptide drug, and cytotoxicity was evaluated by MTT assay (this assay measures cell viability).
(§2) FIG. 5(b) further illustrates the cytotoxic effect of d(KLAKLAK)2(SEQ ID NO:4) and DSTK-GG-d(KLAKLAK)2(SEQ ID NO:5) peptides on the glioma cells and the normal astrocytes. RG2 glioma cells and normal rat astrocytes were plated in quadruplicate in 96-well plates for 24 hours. Increasing concentrations (10 or 100 uM) of cytotoxic peptide alone, d(KLAKLAK)2(SEQ ID NO:4), or cytotoxic peptide linked to targeting peptide, DSTK-GG-d(KLAKLAK)2(SEQ ID NO:5), were added to the cells for 48 hours incubation. Cytotoxicity of therapeutic peptides were evaluated by MTT assay.

RG2 glioma cells [1] = experiment: Cytotoxicity by MTT assay on glioma cells; assay type: cell-based, rat; details: 10 or 100 uM, 48 hours incubation
Description: as §1, §2

RG2 glioma cells [2] = experiment: Detection of internalized phage particles by immunofluorescence microscopy (saponin+/saponin−); assay type: cell-based, rat; details: saponin-treated vs untreated RG2 cells
Description: FIG. 5(a) illustrates the detection of internalized phage particles by immunofluorescence microscopy. RG2 glioma cells were grown on chamber slides and incubated with DSTKSGNM (SEQ ID NO:3) phage. In cells treated with saponin (saponin+) to permeabilize cell membranes, both internalized and extracellular bound phage particles were accessible for staining. Without saponin treatment (saponin−), FIG. 5(a) illustrates that only extracellular phage were available for detection. These slides were then processed for immunofluorescence microscopy with antibody against filed phage, followed by a fluorescein-conjugated secondary antibody to visualize phage particles.

Compound | effect on normal astrocytes (MTT, cell viability) (normal rat astrocytes) | cytotoxic effect on glioma cells (MTT, cell viability) (RG2 glioma cells [1]) | internalization of phage by cells (RG2 glioma cells [2])
CC(C)C[C@@H](NC(=O)[C@H](N)CCCCN)C(=O)N[C@H](C)C(=O)N[C@H](CCCCN)C(=O)N[C@H](CC(C)C)C(=O)N[C@H](C)C(=O)N[C@H](CCCCN)C(=O)N[C@H](CCCCN)C(=O)N[C@H](CC(C)C)C(=O)N[C@H](C)C(=O)N[C@H](CCCCN)C(=O)N[C@H](CC(C)C)C(=O)N[C@H](C)C(=O)N[C@H](CCCCN)C(=O)O [cytotoxic peptide alone, d(KLAKLAK)2, reference compound] | None of the peptides, with or without targeting, demonstrated any effect | no effect | –
CC(C)C[C@@H](NC(=O)[C@@H](CCCCN)NC(=O)CNC(=O)CNC(=O)[C@H](CCCCN)NC(=O)[C@@H](NC(=O)[C@H](CO)NC(=O)[C@@H](N)CC(=O)O)[C@@H](C)O)C(=O)N[C@H](C)C(=O)N[C@H](CCCCN)C(=O)N[C@H](CC(C)C)C(=O)N[C@H](C)C(=O)N[C@H](CCCCN)C(=O)N[C@H](CCCCN)C(=O)N[C@H](CC(C)C)C(=O)N[C@H](C)C(=O)N[C@H](CCCCN)C(=O)N[C@H](CC(C)C)C(=O)N[C@H](C)C(=O)N[C@H](CCCCN)C(=O)O [peptide drug, DSTK-GG-d(KLAKLAK)2] | None of the peptides, with or without targeting, demonstrated any effect | clear cytotoxic effect | –
DSTKSGNM [DSTKSGNM phage] | – | – | internalized
